Results as given in patent US10835533B2, “1 -((3S,4R)-4-(3-fluorophenyl)-1-(2-methoxyethyl)pyrrolidin-3-yl)-3-(4-methyl-3-(2-methylpyrimidin-5-yl)-1-phenyl-1H-pyrazol-5-yl)urea as a TrkA kinase inhibitor” (Array BioPharma Inc., priority 2014, dated 2020).

Assays:
Assay in all cases: KinaseProfiler kinase profiling
Format in all cases: biochemical
Details in all cases: 10 μM, ATP near Km
[1] = molecular target: T1, ALK4 (Homo sapiens, UniProt P36896)
T1 construct: purchased Millipore, Inc. (KinaseProfiler service)
In short: (§1)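 Duplicate single-point measurements (10 μM compound) were performed with near-Km ATP for every kinase in the panel. The reported number is the two-replicate mean, expressed as percent of control.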

[2] = molecular target: T2, AMPK(A1/B1/G1) (Homo sapiens, UniProt Q13131)
T2 construct: purchased Millipore, Inc. (KinaseProfiler service)
In short: as §1

[3] = molecular target: T3, Abl-P (Homo sapiens, UniProt P00519)
T3 construct: purchased Millipore, Inc. (KinaseProfiler service)
In short: as §1

[4] = molecular target: T4, BrSK2 (Homo sapiens, UniProt Q8IWQ3)
T4 construct: purchased Millipore, Inc. (KinaseProfiler service)
In short: as §1

[5] = molecular target: T5, CAMK4 (Homo sapiens, UniProt Q16566)
T5 construct: purchased Millipore, Inc. (KinaseProfiler service)
In short: as §1

[6] = molecular target: T6, CDK3/cyclinE (Homo sapiens, UniProt Q00526)
T6 construct: purchased Millipore, Inc. (KinaseProfiler service)
In short: as §1

[7] = molecular target: T7, CDK5/p25 (Homo sapiens, UniProt Q00535)
T7 construct: purchased Millipore, Inc. (KinaseProfiler service)
T7 sequence (Q00535 whole entry): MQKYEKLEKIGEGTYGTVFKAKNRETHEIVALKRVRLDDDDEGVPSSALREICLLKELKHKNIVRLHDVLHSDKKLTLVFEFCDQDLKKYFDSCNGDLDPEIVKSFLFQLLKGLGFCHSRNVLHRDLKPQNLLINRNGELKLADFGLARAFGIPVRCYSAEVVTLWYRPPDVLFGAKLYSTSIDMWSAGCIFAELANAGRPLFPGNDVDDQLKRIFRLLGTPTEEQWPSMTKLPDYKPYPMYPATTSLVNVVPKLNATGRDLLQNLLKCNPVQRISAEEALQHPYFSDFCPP
T7 sequence (Q15078 99-307 partner limits assumed): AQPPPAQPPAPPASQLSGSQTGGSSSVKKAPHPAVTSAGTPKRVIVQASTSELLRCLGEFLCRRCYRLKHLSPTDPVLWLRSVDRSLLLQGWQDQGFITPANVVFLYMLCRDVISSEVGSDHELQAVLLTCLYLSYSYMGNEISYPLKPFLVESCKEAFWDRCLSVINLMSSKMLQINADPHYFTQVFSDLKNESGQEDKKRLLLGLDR
In short: as §1

[8] = molecular target: T8, CK1gamma2 (Homo sapiens, UniProt P78368)
T8 construct: purchased Millipore, Inc. (KinaseProfiler service)
In short: as §1

[9] = molecular target: T9, CLK3 (Homo sapiens, UniProt P49761)
T9 construct: purchased Millipore, Inc. (KinaseProfiler service)
In short: as §1

[10] = molecular target: T10, CSK (Homo sapiens, UniProt P41240)
T10 construct: purchased Millipore, Inc. (KinaseProfiler service)
In short: as §1

[11] = molecular target: T11, DAPK1 (Homo sapiens, UniProt P53355)
T11 construct: purchased Millipore, Inc. (KinaseProfiler service)
T11 sequence (P53355 whole entry): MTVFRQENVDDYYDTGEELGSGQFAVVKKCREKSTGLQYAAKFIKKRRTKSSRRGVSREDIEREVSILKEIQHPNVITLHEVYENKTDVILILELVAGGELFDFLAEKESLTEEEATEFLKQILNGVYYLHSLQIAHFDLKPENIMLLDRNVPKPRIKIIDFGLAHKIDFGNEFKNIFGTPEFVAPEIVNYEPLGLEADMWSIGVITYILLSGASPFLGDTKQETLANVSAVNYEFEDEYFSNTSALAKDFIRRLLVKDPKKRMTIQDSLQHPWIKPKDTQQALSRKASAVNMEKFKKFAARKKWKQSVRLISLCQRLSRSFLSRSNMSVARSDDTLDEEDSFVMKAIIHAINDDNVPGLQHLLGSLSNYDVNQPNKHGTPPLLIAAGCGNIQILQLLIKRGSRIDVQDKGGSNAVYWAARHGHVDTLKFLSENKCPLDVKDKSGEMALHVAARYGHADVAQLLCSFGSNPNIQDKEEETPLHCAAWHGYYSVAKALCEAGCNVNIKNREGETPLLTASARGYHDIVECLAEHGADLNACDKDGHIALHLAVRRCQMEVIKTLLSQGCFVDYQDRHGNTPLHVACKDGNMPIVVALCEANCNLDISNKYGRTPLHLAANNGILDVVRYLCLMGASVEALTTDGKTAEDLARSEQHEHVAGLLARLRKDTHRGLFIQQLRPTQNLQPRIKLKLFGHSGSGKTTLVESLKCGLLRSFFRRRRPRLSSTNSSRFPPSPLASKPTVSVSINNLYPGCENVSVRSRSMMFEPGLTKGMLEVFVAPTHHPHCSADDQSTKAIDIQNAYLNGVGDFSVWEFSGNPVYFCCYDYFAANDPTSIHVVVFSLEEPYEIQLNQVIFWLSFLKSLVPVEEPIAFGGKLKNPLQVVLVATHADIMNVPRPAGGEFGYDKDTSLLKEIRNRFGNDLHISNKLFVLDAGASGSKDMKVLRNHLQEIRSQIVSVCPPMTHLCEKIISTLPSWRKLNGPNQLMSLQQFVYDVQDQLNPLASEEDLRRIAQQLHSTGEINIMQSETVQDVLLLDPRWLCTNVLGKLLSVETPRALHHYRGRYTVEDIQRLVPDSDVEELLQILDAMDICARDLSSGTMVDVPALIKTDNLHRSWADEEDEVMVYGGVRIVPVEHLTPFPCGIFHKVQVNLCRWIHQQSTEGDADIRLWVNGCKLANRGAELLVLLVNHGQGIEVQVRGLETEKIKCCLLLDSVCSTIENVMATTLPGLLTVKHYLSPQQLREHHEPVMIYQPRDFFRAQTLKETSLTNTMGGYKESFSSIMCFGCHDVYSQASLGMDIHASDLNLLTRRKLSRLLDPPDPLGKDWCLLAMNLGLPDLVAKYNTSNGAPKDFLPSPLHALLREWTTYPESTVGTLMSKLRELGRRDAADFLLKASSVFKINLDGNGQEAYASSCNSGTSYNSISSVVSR
In short: as §1

[12] = molecular target: T12, DAPK2 (Homo sapiens, UniProt Q9UIK4)
T12 construct: purchased Millipore, Inc. (KinaseProfiler service)
In short: as §1

[13] = molecular target: T13, DAPK3 (Homo sapiens, UniProt O43293)
T13 construct: purchased Millipore, Inc. (KinaseProfiler service)
In short: as §1

[14] = molecular target: T14, DRAK1 (Homo sapiens, UniProt Q9UEE5)
T14 construct: purchased Millipore, Inc. (KinaseProfiler service)
In short: as §1

[15] = molecular target: T15, EphA1 (Homo sapiens, UniProt P21709)
T15 construct: purchased Millipore, Inc. (KinaseProfiler service)
In short: as §1

[16] = molecular target: T16, EphA4 (Homo sapiens, UniProt P54764)
T16 construct: purchased Millipore, Inc. (KinaseProfiler service)
In short: as §1

[17] = molecular target: T17, EphA5 (Homo sapiens, UniProt P54756)
T17 construct: purchased Millipore, Inc. (KinaseProfiler service)
In short: as §1

[18] = molecular target: T18, GRK6 (Homo sapiens, UniProt P43250)
T18 construct: purchased Millipore, Inc. (KinaseProfiler service)
In short: as §1

[19] = molecular target: T19, GRK7 (Homo sapiens, UniProt Q8WTQ7)
T19 construct: purchased Millipore, Inc. (KinaseProfiler service)
In short: as §1

[20] = molecular target: T20, HIPK3 (Homo sapiens, UniProt Q9H422)
T20 construct: purchased Millipore, Inc. (KinaseProfiler service)
In short: as §1

[21] = molecular target: T21, IR Activated (Homo sapiens, UniProt P06213)
T21 construct: purchased Millipore, Inc. (KinaseProfiler service)
T21 sequence (P06213 1005-1310 limits assumed): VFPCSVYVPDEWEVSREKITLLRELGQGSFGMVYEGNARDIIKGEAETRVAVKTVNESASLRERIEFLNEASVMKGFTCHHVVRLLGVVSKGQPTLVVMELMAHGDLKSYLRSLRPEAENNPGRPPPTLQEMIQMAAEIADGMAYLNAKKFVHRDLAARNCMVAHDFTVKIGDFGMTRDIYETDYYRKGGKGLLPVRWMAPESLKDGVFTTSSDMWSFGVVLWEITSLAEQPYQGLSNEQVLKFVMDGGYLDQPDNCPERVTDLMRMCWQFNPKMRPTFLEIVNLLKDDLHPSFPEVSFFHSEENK
In short: as §1

[22] = molecular target: T22, IRAK1 (Homo sapiens, UniProt P51617)
T22 construct: purchased Millipore, Inc. (KinaseProfiler service)
In short: as §1

[23] = molecular target: T23, ITK (Homo sapiens, UniProt Q08881)
T23 construct: purchased Millipore, Inc. (KinaseProfiler service)
In short: as §1

[24] = molecular target: T24, LKB1 (Homo sapiens, UniProt Q15831)
T24 construct: purchased Millipore, Inc. (KinaseProfiler service)
In short: as §1

[25] = molecular target: T25, Lyn (Homo sapiens, UniProt P07948)
T25 construct: purchased Millipore, Inc. (KinaseProfiler service)
T25 sequence (P07948 whole entry): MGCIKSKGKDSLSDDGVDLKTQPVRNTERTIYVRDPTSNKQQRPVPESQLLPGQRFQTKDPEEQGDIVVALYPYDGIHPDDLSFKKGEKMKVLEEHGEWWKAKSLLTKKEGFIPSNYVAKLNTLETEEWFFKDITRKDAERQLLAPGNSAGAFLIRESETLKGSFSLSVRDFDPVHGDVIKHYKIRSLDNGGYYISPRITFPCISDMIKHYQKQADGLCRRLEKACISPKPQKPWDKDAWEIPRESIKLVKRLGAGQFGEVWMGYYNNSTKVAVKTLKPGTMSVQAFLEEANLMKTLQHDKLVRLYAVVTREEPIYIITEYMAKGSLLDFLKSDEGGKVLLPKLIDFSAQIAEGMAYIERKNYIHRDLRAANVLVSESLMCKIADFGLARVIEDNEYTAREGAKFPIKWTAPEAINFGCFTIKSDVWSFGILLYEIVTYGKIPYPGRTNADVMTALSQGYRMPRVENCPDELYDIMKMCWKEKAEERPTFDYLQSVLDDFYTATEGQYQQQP
In short: as §1

[26] = molecular target: T26, MRCKalpha (Homo sapiens, UniProt Q5VT25)
T26 construct: purchased Millipore, Inc. (KinaseProfiler service)
T26 sequence (Q5VT25 whole entry): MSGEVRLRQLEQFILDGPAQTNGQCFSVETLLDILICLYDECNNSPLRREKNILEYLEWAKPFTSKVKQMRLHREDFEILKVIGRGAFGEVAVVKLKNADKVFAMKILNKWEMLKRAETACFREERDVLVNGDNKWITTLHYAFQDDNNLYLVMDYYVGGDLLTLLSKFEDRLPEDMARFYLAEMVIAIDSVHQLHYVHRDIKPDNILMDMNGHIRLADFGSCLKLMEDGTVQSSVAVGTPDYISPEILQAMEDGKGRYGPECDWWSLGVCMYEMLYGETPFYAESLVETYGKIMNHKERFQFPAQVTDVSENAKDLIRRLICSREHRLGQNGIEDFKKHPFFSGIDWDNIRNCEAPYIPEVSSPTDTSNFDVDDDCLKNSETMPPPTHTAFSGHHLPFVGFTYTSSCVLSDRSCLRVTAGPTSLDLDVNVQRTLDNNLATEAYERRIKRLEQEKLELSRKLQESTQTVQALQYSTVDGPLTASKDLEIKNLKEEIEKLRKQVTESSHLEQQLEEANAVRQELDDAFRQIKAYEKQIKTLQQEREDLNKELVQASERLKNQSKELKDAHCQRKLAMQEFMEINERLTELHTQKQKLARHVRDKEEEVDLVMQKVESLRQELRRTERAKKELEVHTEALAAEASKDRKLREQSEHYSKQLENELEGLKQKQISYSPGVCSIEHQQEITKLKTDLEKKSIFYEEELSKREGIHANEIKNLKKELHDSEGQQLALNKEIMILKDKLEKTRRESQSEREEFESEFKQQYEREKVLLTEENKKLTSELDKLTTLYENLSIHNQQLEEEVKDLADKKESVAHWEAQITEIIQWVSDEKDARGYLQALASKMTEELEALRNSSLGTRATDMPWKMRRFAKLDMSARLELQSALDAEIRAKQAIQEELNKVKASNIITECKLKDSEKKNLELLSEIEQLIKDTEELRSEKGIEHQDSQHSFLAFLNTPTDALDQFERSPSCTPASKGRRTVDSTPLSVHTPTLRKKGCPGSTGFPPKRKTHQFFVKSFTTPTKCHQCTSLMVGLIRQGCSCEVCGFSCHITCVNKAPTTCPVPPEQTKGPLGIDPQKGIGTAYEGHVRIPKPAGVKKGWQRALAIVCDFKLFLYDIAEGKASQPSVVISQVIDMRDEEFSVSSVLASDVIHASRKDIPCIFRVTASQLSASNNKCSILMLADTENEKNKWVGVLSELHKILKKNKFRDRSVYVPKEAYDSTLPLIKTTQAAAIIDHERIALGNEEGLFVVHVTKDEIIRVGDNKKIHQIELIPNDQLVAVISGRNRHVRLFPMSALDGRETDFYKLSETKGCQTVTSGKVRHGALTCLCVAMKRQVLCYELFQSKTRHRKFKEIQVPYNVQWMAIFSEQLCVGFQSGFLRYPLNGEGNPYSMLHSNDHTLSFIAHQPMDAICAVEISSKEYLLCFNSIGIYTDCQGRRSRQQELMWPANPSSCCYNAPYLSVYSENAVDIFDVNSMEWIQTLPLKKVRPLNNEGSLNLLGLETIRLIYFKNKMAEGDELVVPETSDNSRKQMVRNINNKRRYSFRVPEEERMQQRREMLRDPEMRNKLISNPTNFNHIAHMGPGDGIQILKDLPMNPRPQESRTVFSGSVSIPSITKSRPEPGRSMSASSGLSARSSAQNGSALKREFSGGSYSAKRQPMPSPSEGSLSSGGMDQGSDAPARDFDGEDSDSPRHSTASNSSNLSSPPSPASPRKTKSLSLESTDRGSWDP
In short: as §1

[27] = molecular target: T27, MYLK (Homo sapiens, UniProt Q15746)
T27 construct: purchased Millipore, Inc. (KinaseProfiler service)
In short: as §1

[28] = molecular target: T28, Met (Homo sapiens, UniProt P08581)
T28 construct: purchased Millipore, Inc. (KinaseProfiler service)
In short: as §1

[29] = molecular target: T29, NEK7 (Homo sapiens, UniProt Q8TDX7)
T29 construct: purchased Millipore, Inc. (KinaseProfiler service)
In short: as §1

[30] = molecular target: T30, NLK (Homo sapiens, UniProt Q9UBE8)
T30 construct: purchased Millipore, Inc. (KinaseProfiler service)
In short: as §1

[31] = molecular target: T31, PTK5 (Homo sapiens, UniProt P42685)
T31 construct: purchased Millipore, Inc. (KinaseProfiler service)
In short: as §1

[32] = molecular target: T32, RIPK2 (Homo sapiens, UniProt O43353)
T32 construct: purchased Millipore, Inc. (KinaseProfiler service)
T32 sequence (O43353 whole entry): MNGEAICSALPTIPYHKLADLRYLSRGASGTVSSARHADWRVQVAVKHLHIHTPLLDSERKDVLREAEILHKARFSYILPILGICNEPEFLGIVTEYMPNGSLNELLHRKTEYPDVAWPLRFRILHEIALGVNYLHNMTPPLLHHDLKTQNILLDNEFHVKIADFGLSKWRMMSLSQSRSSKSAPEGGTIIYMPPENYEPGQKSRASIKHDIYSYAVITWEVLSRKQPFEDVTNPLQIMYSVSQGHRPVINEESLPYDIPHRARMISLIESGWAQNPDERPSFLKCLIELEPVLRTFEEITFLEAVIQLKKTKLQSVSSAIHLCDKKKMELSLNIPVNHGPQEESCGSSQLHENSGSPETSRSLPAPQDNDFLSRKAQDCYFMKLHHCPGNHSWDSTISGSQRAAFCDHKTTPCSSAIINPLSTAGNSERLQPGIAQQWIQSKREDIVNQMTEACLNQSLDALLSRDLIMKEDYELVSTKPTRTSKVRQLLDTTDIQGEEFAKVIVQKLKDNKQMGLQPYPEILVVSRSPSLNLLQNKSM
In short: as §1

[33] = molecular target: T33, Ron (Homo sapiens, UniProt Q04912)
T33 construct: purchased Millipore, Inc. (KinaseProfiler service)
In short: as §1

[34] = molecular target: T34, Src (Homo sapiens, UniProt P12931)
T34 construct: purchased Millipore, Inc. (KinaseProfiler service)
In short: as §1

[35] = molecular target: T35, TLK2 (Homo sapiens, UniProt Q86UE8)
T35 construct: purchased Millipore, Inc. (KinaseProfiler service)
In short: as §1

[36] = molecular target: T36, TSSK2 (Homo sapiens, UniProt Q96PF2)
T36 construct: purchased Millipore, Inc. (KinaseProfiler service)
In short: as §1

[37] = molecular target: T37, TrkA (Homo sapiens, UniProt P04629)
T37 construct: purchased Millipore, Inc. (KinaseProfiler service)
In short: as §1

[38] = molecular target: T38, WNK2 (Homo sapiens, UniProt Q9Y3S1)
T38 construct: purchased Millipore, Inc. (KinaseProfiler service)
In short: as §1

[39] = molecular target: T39, ZAP-70 (Homo sapiens, UniProt P43403)
T39 construct: purchased Millipore, Inc. (KinaseProfiler service)
In short: as §1

[40] = molecular target: T40, eEF-2K (Homo sapiens, UniProt O00418)
T40 construct: purchased Millipore, Inc. (KinaseProfiler service)
In short: as §1

[41] = molecular target: T41, mTOR (Homo sapiens, UniProt P42345)
T41 construct: purchased Millipore, Inc. (KinaseProfiler service)
In short: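 Off-target panel screen: compound added at 10 μM, ATP held near Km for every enzyme, two replicates each. Residual activity expressed relative to control and averaged.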

In the case of COCCN1C[C@@H](NC(=O)Nc2c(C)c(-c3cnc(C)nc3)nn2-c2ccccc2)[C@H](c2cccc(F)c2)C1 [Compound 1, 1-((3S,4R)-4-(3-fluorophenyl)-1-(2-methoxyethyl)pyrrolidin-3-yl)-3-(4-methyl-3-(2-methylpyrimidin-5-yl)-1-phenyl-1H-pyrazol-5-yl)urea], the “Avg POC” value [1] was 106.5 POC, the “Avg POC” value [2] was 102.5 POC and the “Avg POC” value [3] was 110.5 POC. The “Avg POC” value [4] was 104 POC, the “Avg POC” value [5] was 100 POC and the “Avg POC” value [6] was 94.5 POC. For the same compound, the “Avg POC” value [7] was 115 POC, the “Avg POC” value [8] was 61.5 POC and the “Avg POC” value [9] was 94.5 POC. The “Avg POC” value [10] was 100 POC, the “Avg POC” value [11] was 114 POC and the “Avg POC” value [12] was 97 POC. The “Avg POC” value [13] was 105.5 POC, the “Avg POC” value [14] was 129.5 POC and the “Avg POC” value [15] was 94.5 POC. The “Avg POC” value [16] was 98 POC, the “Avg POC” value [17] was 109.5 POC and the “Avg POC” value [18] was 98 POC. For the same compound, the “Avg POC” value [19] was 101 POC, the “Avg POC” value [20] was 90 POC and the “Avg POC” value [21] was 105.5 POC. The “Avg POC” value [22] was 103 POC, the “Avg POC” value [23] was 104 POC and the “Avg POC” value [24] was 104.5 POC. The “Avg POC” value [25] was 104.5 POC, the “Avg POC” value [26] was 90.5 POC and the “Avg POC” value [27] was 106.5 POC. For the same compound, the “Avg POC” value [28] was 124.5 POC, the “Avg POC” value [29] was 104 POC and the “Avg POC” value [30] was 94.5 POC. The “Avg POC” value [31] was 105 POC, the “Avg POC” value [32] was 90.5 POC and the “Avg POC” value [33] was 100 POC. For the same compound, the “Avg POC” value [34] was 120 POC, the “Avg POC” value [35] was 101.5 POC and the “Avg POC” value [36] was 108.5 POC. The “Avg POC” value [37] was 2.5 POC, the “Avg POC” value [38] was 92.5 POC and the “Avg POC” value [39] was 104.5 POC. For the same compound, the “Avg POC” value [40] was 112.5 POC and the “Avg POC” value [41] was 97.5 POC.
